Laboratory results from US12629352B2, “Methods and uses for apelin receptor agonists” (RESEARCH TRIANGLE INSTITUTE, priority 2019, dated 2026).

Tested on: bleomycin-induced pulmonary fibrosis in male C57BL/6 mice
Assay: 21-day bleomycin-induced lung fibrosis model, prophylactic BID oral treatment
Format: in vivo
Settings: for Ashcroft score index: FIG. 15A, BID treatment; for absolute lung weights / absolute lung weights vs vehicle: day 21 post-bleomycin; for absolute lung weights: ±SEM, significantly lower than vehicle (p<0.05)
Description: Bleomycin is widely used to induce pulmonary fibrosis in rodents in order to study potential novel therapies for fibrosis. This study was designed to evaluate the prophylactic efficacy of test compound, Compound 1, also referred to as SRRM-423, in a 21-day model of bleomycin-induced pulmonary fibrosis in male C57BL/6 mice.
Prophylactic treatment of three different doses of 30 mg/kg, 15 mg/kg, and 7.5 mg/kg of Compound 1 was commenced a day before induction of disease and continued until the end of the study, namely 21 days after bleomycin administration. Treatment was administered twice daily via oral gavage.
Mice were administered bleomycin (Catalog number C-61703-323-22, lot number D011495AA, Hospira) via oropharyngeal route to induce lung fibrosis.
Bleomycin-induced animals were treated twice daily with either of the three different doses of test compound Compound 1 or pirfenidone starting from a day prior to disease induction and continued till study termination. Study animals were harvested on day 21 post-bleomycin administration. As an end point analysis, fibrosis symptoms such as body weight, absolute lung weight, lung weight normalized to body weight, and total leukocytes in BAL fluid were evaluated and compared with vehicle-treated mice.
On day 0, all mice in groups 2-6 received a 1.5 U/kg oropharyngeal administration of bleomycin to induce pulmonary fibrosis. Animals in group 1 were not administered bleomycin, but instead received a single dose of normal saline via the oropharyngeal route, and were considered sham control mice.
Dosing was initiated one day prior to induction of disease. Animals were dosed twice daily orally with Compound 1 and Pirfenidone and treatment was continued until 21 days after bleomycin administration. Animals from group 2 were treated with vehicle (0.5% methylcellulose). Animals in groups 3, 4 and 5 received Compound 1 at 30, 15, and 7.5 mg/kg respectively, and animals in group 6 received Pirfenidone 100 mg/kg.
Surviving animals were euthanized 21 days post bleomycin administration. Animals were weighed, then blood and lungs were collected. Blood was processed for plasma. Lungs, were weighed, flushed with HBSS for BAL collection, and fixed in 10% NBF. Supernatant from BAL fluid was frozen while the pellet was used for total leukocyte cell count.
In order to induce pulmonary fibrosis, mice in groups 2-6 were administered 1.5 U/kg bleomycin (Catalog number C-61703-323-22, lot number D011495AA, Hospira) in 70 μl via oropharyngeal administration. Animals from group 1 were administered 70 μl of saline by the oropharyngeal route, instead of bleomycin, and served as sham controls.
Compound 1 was provided as a trifluoroacetic acid (TFA) salt and requires a salt correction of 1.0654. All dose amounts were calculated as the free base content of the test article using the correction factor. Vehicle used for formulation of test compound, Compound 1, was 0.3% Tween 80 and 1% N-methylpyrollidinone in 0.5% aqueous methylcellulose. Vehicle and dosing formulation of Compound 1 was prepared fresh weekly. Dosing formulations and vehicles were stored at 4±2° C. protected from heat and light. The expiration date for the test article dosing solutions were set at 7 days after preparation. Pirfenidone was sourced from a vendor and formulated in the same vehicle as Compound 1, i.e., 0.3% Tween 80 and 1% N-methylpyrollidinone in 0.5% aqueous methylcellulose.
Animals were dosed twice daily with volume of 100 μl/dose by oral gavage from a day prior to disease induction and same treatment was continued till study termination, i.e., day 21 post bleomycin administration. Surviving animals were harvested within 2 to 4 hours post final dosing on day 21.
The lungs from each animal were harvested following Aragen's Standard Operating Procedure (WA-004-01). Each lung was dissected from the animal and weighed. The BAL fluid was collected by lavaging the lung twice with 0.5 ml Hanks Balanced Salt Solution (HBSS, VWR Radnor, PA). […]

[1] = lung histopathology, dose not specified

SMILES	fibrosis according to Ashcroft scores (30 mg/kg BID, compared to induced controls and to 100 mg/kg Pirfenidone)	fibrosis according to Ashcroft scores (15 or 7.5 mg/kg BID, compared to induced controls, similar to 100 mg/kg Pirfenidone BID)	average total leukocyte count in BAL fluid (30, 15 and 7.5 mg/kg BID, day 21, vs vehicle group 2, statistical significance not reached)	α-SMA positive lung tissue as a percent of the total lung parenchyma (>7.5 mg/kg, FIG. 15B, compared to induced controls, no clear relationship to the dose)	Ashcroft score index [1]	Ashcroft score of lung section (Masson's trichome staining) (FIG. 16, 30 mg mpk + bleomycin, bleomycin/no treatment similar to score 5)	α-SMA positive staining of lung section (FIG. 17, 30 mpk + bleomycin, compared to induced controls)	absolute lung weights (group 3, 30 mg/kg BID oral gavage)	absolute lung weights vs vehicle (group 4, 15 mg/kg BID oral gavage)	body weight (group 4, 15 mg/kg BID, recorded three times a week to day 21)	absolute lung weights (group 5, 7.5 mg/kg BID oral gavage)	fibrosis symptoms (body weight, lung weight, lung weight index, total leukocyte counts, myofibroblast proliferation) (highest dose of 30 mg/kg BID)	proliferation of activated myofibroblasts (antibody to α-SMA) [1]	absolute and normalized lung weights (prophylactic BID treatment, doses not distinguished)	absolute lung weights vs vehicle (group 6, 100 mg/kg BID oral gavage)
O=C(O)C[C@H](CCN1CCCC(F)(F)C1)NC(=O)c1cc(-c2ccccc2C(F)(F)F)n(C2CCCC2)n1 [Compound 1, (3S)-3-({1-cyclopentyl-5-[2-(trifluoromethyl)phenyl]-1H-pyrazol-3-yl}formamido)-5-(3,3-difluoropiperidin-1-yl)pentanoic acid]	greatest reduction in fibrosis	substantially less fibrosis	reduced the average leukocyte count in BAL fluid in all test groups	substantially less α-SMA positive lung tissue	reduced Ashcroft score index	~2	substantially less compared to induced controls	310 mg	Statistical significance was not reached	lost more weight compared to other groups	313 mg	significantly ameliorated fibrosis symptoms	reduced proliferation of activated myofibroblasts	reduced absolute and normalized lung weights	
Cc1ccc(=O)n(-c2ccccc2)c1 [Pirfenidone, reference compound]					reduced Ashcroft score index										Statistical significance was not reached
